Results reported in patent US10385108B2, “Peptide analogs of alpha-melanocyte stimulating hormone” (Genzyme Corporation, priority 2008, dated 2019).
pEC50: −log10 of the molar value.

Legend:
[1] = Serum levels after a single dose in mice; type: in vivo
C57BL/6 mice = assay: MOG35-55 induced EAE model; type: in vivo
[2] = tested on: B16-F1 murine melanoma cells; assay: Intracellular cAMP in B16-F1 melanoma cells; type: cell-based
Description: B16-F1 (melanoma cell line) cells from American Type Culture Collection (Manassas, Va.) were seeded into flat bottom 96 well plates at 5×10^4/well and cultured overnight in DMEM (Cambrex, Walkersville, Md.) supplemented with 2 mM glutamine, antibiotics (100 U/ml penicillin and 100 […]) and 10% heat-inactivated fetal bovine serum (Invitrogen, Grand Island, N.Y.). […] Cells were lysed and intracellular cAMP levels were measured by an enzyme immunoassay kit (Amersham Biosciences, Piscataway, N.J.). Forskolin (Sigma, St. Louis, Mo.) at 100 μM served as positive controls.
cAMP levels in B16-F1 melanoma cells after treatment with native α-MSH, RI α-MSH, or a scrambled control peptide were examined. The […] melanoma cell line expresses a high number of MCR1 receptors (3000-4000 receptors/cell) compared with macrophages cell lines which express only 100-200 receptors/cell. Therefore we selected to examine the effect of the RI α-MSH treatment on the melanoma cell line. Murine melanoma B16-F1 cells were treated with native α-MSH, RI α-MSH, or control scrambled peptide at concentrations 1 pg/ml-1 μg/ml. After 30 min, cells were lysed and intracellular cAMP was measured by an enzyme immunoassay. […] However, a higher concentration of RI α-MSH (100 ng/ml) was necessary to increase cAMP compared with native α-MSH which increased cAMP at a 10 pg/ml concentration. This difference in concentration of peptide necessary to increase cAMP levels may be the result of the binding affinity to the MCR1 receptor.
Murine melanoma B16-F1 cells were treated with native α-MSH, RI α-MSH, scrambled peptide control, KPV, or alanine substituted peptides of RI α-MSH at 1 μg/ml (FIG. 7B). […] Peptides designated 810, 811, and 812 have alanine substitutions in the central core tetrapeptide sequence (D-Trp D-Arg D-Phe D-His region; AA 5-8) (variant disclosed in SEQ ID NO:2) proposed to be involved in native α-MSH binding to the melanocortin receptor and its biological activity. […] The residues in the core tetrapeptide (wrfh) (variant disclosed in SEQ ID NO:2) and to a lesser extent, the methionine 4 of RI-MSH are critical for binding to MC1R.
B16-F1 murine melanoma cells were cultured into 96 well plates 5×10^4 cells/well overnight in media with L-glutamine and pen/strep and FBS. Media was removed and new media with IBMX was added to the cells for 1 hr. Cells were then treated with RI α-MSH, or RI α-MSH peptide analogs (890, 891, 892, 893, 894 or 895). Cells were lysed after 30 min using a cAMP assay kit and supernatant were used in the assay. Forskolin at 10 μM served as positive controls.
Intracellular cAMP was measured using a cAMP competition Assay Kit (Amersham Biosciences). All cell lysate samples were diluted 1:100 for analysis.
Murine melanoma B16-F1 cells were treated with RI α-MSH, or RI α-MSH analogs (869, 872, 880, 878, 886 and 890-895) at a concentration range of 10^−4-10^−11 M. cAMP levels from cells treated with RI α-MSH, or RI α-MSH analogs. […] See FIG. 22 for graphical data and Table 2 for EC50 data.

[3] = Example 10, 100 μg/mouse i.p. daily from day 10

## CSCC[C@@H](NC(=O)[C@@H](CCC(=O)O)NC(=O)[C@@H](Cc1c[nH]cn1)NC(=O)[C@@H](Cc1ccccc1)NC(=O)[C@@H](CCCNC(=N)N)NC(=O)[C@@H](Cc1c[nH]c2ccccc12)NC(=O)CNC(=O)[C@@H](CCCCN)NC(=O)[C@H]1CCCN1C(=O)[C@H](NC(C)=O)C(C)C)C(=O)N[C@H](CO)C(=O)N[C@H](Cc1ccc(O)cc1)C(=O)N[C@H](CO)C(N)=O [RI-MSH, vpkGwrfhemsys]
[1]; mouse, in vivo, iv
  serum half-life compared (in words): longer serum half-life than native α-MSH
[1]; single dose of 100 μg, mice, n=5
  serum levels after a single dose (in words): measurable serum levels of RI-α-MSH after 24 hrs
C57BL/6 mice; 100 μg/mouse i.p. daily from day 10, day 24
  spinal cord histopathology (in words): lack focal area of inflammation
C57BL/6 mice; Day 1 and Day 4 of treatment
  TNF-α mRNA in spleen vs PBS (in words): no significant change
C57BL/6 mice; Day 7 of treatment
  IL-10 mRNA in spleen vs PBS (in words): reduced
C57BL/6 mice; [3]
  maximum percent incidence of disease: 20%
  mean clinical disease score vs PBS (in words): significant reduction in the mean clinical disease score
C57BL/6 mice; Example 11, 30 μg/mouse i.p. daily from day 10
  mean clinical scores (in words): did not have a significant effect
C57BL/6 mice; Example 11, dexamethasone 2 mg/kg
  maximum percent incidence of disease: 35%
C57BL/6 mice; Example 11, peptides 100 μg/mouse, dexamethasone 2 mg/kg, i.p. daily from day 10
  mean clinical disease score vs PBS (in words): reduction in the mean clinical disease score
C57BL/6 mice; after 7 days of daily treatment
  TNF-α mRNA in spleen vs PBS (in words): significantly decreased
C57BL/6 mice; earlier timepoints (Day 1 and 4)
  IL-10 mRNA in spleen vs PBS (in words): no difference
[2]; 1 pg/ml-1 μg/ml, 30 min, vs untreated or scrambled peptide
  cAMP levels, dose response (in words): significantly increased cAMP levels in a dose dependent manner
[2]; 30 min
  concentration necessary to increase cAMP: 100 ng/mL
[2]; B16-F1 cells, 10^-4-10^-11 M, 30 min, IBMX
  pEC50: 5.01
[2]; peptide at 1 μg/ml
  cAMP levels (in words): significantly elevated
